Holding throughout (type): physicochemical
Series [1] in a line: Stability test under a photo-stressed condition.
A short description of series [2]: Hygroscopicity test. The text has this: Compounds with low hygroscopicity are advantageous in preparing formulations, and also are advantageous for storage. Additionally, compounds with high hygroscopicity are not advantageous in that they are difficult to formulate, and reproducible results may hardly be obtained even though formulations can be successfully achieved.

Series [3] can be described thus: Crystal stability test under severe stability testing conditions. Here is the method:
Finally, a crystal stability test was performed to examine the stability of the crystalline form itself, and the results are shown in Table 4 below.

The nature of series [4]: Static-electricity inducibility test (bulk density, tapped density, Carr's Index). As to conditions: for CI (Carr's Index): CI=100×(1−BD/TD), ≦30 value - good flowability.
Setting [5] is: after 4 weeks, photo-stressed condition.
[6] abbreviates: after 4 weeks, photo-stressed condition (1,200,000 lux or higher and 200 W/m^2 or higher).
Setting [7] is: after 4 weeks at 60±2° C., 80±5% RH.

Values joined by “and” are separate entries in the source; they are usually repeats but may differ in a detail not shown here. Equal values may be shown once. A value given as a limit tells only on which side of the number the result lay.

Take `Cc1nc2c(O[C@H]3CCOc4cc(F)cc(F)c43)cc(C(=O)N(C)C)cc2[nH]1` [Crystalline form A, 4-[((4S)-5,7-difluoro-3,4-dihydro-2H-chromen-4-yl)oxy]-N,N,2-trimethyl-1H-benzimidazole-6-carboxamide]: the “Content of impurities (related compounds)” value in series [1] (setting [5]) is listed as 0.10%; in series [1] (after 4 weeks, photo-stressed condition, listed as crystalline form A), no more than 0.1%; in series [1] (initial stage), 0.10%; in series [1] (initial stage, listed as crystalline form A), no more than 0.1%. Further, the Optical purity in series [1] (setting [5]) amounted to 100%. Moreover, the Appearance entry in series [1] (setting [6]) and in series [1] (initial stage) was “white” throughout. Besides, the Hygroscopicity in series [2] (33% RH, after 4 weeks) was 0.17; in series [2] (75% RH, after 4 weeks), 0.20; in series [2] (93% RH, after 4 weeks), 0.28. The Hygroscopicity values result in series [2] (stored at 33%, 75% and 93% relative humidity for 4 weeks) was “below 0.3”. In addition, the Crystalline form entry in series [3] (setting [7]) and in series [3] (initial stage) was “crystalline form A” in each case. Moreover, the DSC in series [3] (setting [7]) and in series [3] (initial stage) was 223 °C throughout. Besides, the “BD (bulk density)” value in series [4] was 0.34 g/mL and 0.32 g/mL. Also, the “TD (tapped density)” value in series [4] came out at 0.45 g/mL. Besides, the “CI (Carr's Index)” value in series [4] is 24.44% and 28.89%.

`Cc1nc2c(O[C@H]3CCOc4cc(F)cc(F)c43)cc(C(=O)N(C)C)cc2[nH]1` [Non-crystalline form, 4-[((4S)-5,7-difluoro-3,4-dihydro-2H-chromen-4-yl)oxy]-N,N,2-trimethyl-1H-benzimidazole-6-carboxamide]: the “Increase in content of related compounds” value in series [1] (after 4-week photoexposure vs initial) was no less than 3 fold. Besides, the “Increase in content of optical isomers” value in series [1] (after 4 weeks photo-stressed condition vs initial) is reported as 10 fold. For the same molecule, the “Content of impurities (related compounds)” value in series [1] (setting [5]) was found to be 0.49%; in series [1] (initial stage), 0.16%; in series [1] (initial stage, listed as non-crystalline form) it was 0.16%. Moreover, the “Content of optical isomers” value in series [1] (setting [5]) came to 0.47%; in series [1] (initial stage) it was 0.04%. Also, the Appearance entry is “yellow” in series [1] (setting [6]) and “white” in series [1] (initial stage). In addition, the Hygroscopicity stood at 1.90 in series [2] (33% RH, after 4 weeks); 4.09 in series [2] (75% RH, after 4 weeks); 5.25 in series [2] (93% RH, after 4 weeks); 1.32 in series [2] (initial stage). The “BD (bulk density)” value in series [4] was 0.23 g/mL and 0.22 g/mL. In addition, in series [4], the “TD (tapped density)” value was 0.39 g/mL and 0.38 g/mL. In addition, the “CI (Carr's Index)” value in series [4] is 41.02% and 42.11%.

The values are drawn from patent US9908870B2, “Crystalline form of a benzimidazole derivative and a preparation method thereof” (CJ HEALTHCARE CORPORATION, priority 2015, dated 2018).
